PMC3396687, “Moonlighting Peptides with Emerging Function” (PLoS ONE, 2012)
Where two headings read alike, the source gives them in different places. Where no end group is shown, it is not given here.

Experiments:
[1] = test system: Human foreskin fibroblasts (HFF) cells; experiment: Toxicity against primary cultures of human cells (LIVE/DEAD)
Procedure: Human foreskin fibroblasts (HFF) cells were grown in high glucose DMEM (Invitrogen, Carlsbad, CA) supplemented with 10% fetal bovine serum (Sigma, St. Louis, MO) and penicillin/streptomycin 100 U/ml (Invitrogen, Carlsbad, CA). The cultures were incubated at 37 °C in 95% air and 5% carbon dioxide with 95% humidity. After 24 hr of plating, 15 micro liters of a stock solution of each peptide was added and 72 hr later cell viability was estimated using the LIVE/DEAD cytotoxicity kit (Molecular Probes L-3224, Invitrogen, Carlsbad, CA) according to manufacturer instructions (4 μM Eth D-1 and 2 μM Calcein AM were used). The esterase substrate calcein AM gives a green fluorescent product when hydrolyzed; therefore, cells stained green have esterase activity and consequently an intact membrane capable of retaining the esterase product. Ethidium homodimer-1, an impermeable dye that binds DNA, enters only into compromised cellular membranes commonly observed in death cells.
All these concentrations are the dry weight of each peptide.
Images were taken on a Nikon Eclipse TE300 fluorescence microscope from representative fields. Each peptide was tested in two independent assays, each performed in triplicates.

E. coli (DH10B) = assay type: cell-based, Escherichia coli; conditions: for MIC: LB medium, 37°C, 10 h, OD 600 nm, lowest concentration where no visible growth occurred, four independent experiments; for antibacterial activity (in words): LB, see Table S2, Figure 1A and 1B
Procedure: To evaluate the antibacterial activity of the Iztli peptides, the Escherichia coli DH1OB strain, Δ(mrr-hsd RMS-mcrBC) mcrA recA1 was used.
Serial dilutions of peptides were prepared in sterilized water. These concentrations are reported as the dry weight of each peptide. To determine the actual concentration of these peptides in solution, we estimated the molar absorption coefficient from the absorbance of each peptide at 214 nm using a spectrophotometer HP8452, kindly provided by Dr. Armando Gomez-Puyou. Then, the concentration of each peptide was calculated as: C = A/(L*MAC); where C: concentration (M), A: absorbance (arbitrary unit), L: length of the path of the spectrophotometer cell (cm) and MAC: the molar absorption coefficient (M^−1cm^−1).
The antibacterial activity of the synthetic peptides was examined in sterile 100-well plates (HC2 Pat. Pend., Finland) in a final volume of 200 µl as follows: aliquots (25 µl) of a suspension containing bacteria at a concentration of 10^5 CFU/mL in LB medium were added to 75 µl of water containing the peptide. The mixture was completed by the addition of 100 µl of 2×-concentrated LB medium. The plates were incubated at 37°C with constant orbital shaking for 10 h (at a rate specified by the equipment provider as “High”). Microbial growth was automatically determined by reading every 60 minutes the optical density at 600 nm with an OY Microplate Reader (Bioscreen C, Finland).
The minimum inhibitory concentration (MIC) was determined as the lowest concentration where no visible growth occurred. At least three different concentrations were tested for each peptide to find the corresponding MIC. All MICs were determined from four independent experiments. […]

human cells = conditions: cited from earlier work
Source text: Supplement pone.0040125.s019.doc, table 1: Supplementary Table S2. Designed selective antibacterial peptides | column: Toxicity (µM)

bacteria = conditions: values marked (*), ref 36 ([3] in supplement, del Rio et al., 2001); cited from earlier work
Source text: Supplement pone.0040125.s019.doc, table 1: Supplementary Table S2. Designed selective antibacterial peptides | column: MIC (µM)

isolated mitochondria = experiment: Mitochondrial swelling; assay type: biochemical, Saccharomyces cerevisiae; conditions: absorbance at 540 nm; IP1 117 µM, fIP1 100 µM, α-pheromone 160 µM (Figure 1C)
Procedure: We isolated mitochondria as described in Supporting Information S1 (see section I.2). Swelling of mitochondria was determined as reported before. Briefly, fresh mitochondria were diluted in 1 mL of 0.3 M mannitol, 5 mM MES, pH 6.8 (TEA) and 5 µL of ethanol. After 20 seconds, when optical density was stable, the peptides were added. The absorbance at 540 nm was recorded in a DW2 Aminco spectrophotometer (Olis, Inc, USA) in a split mode with magnetic stirring. A decrease in the absorbance was indicative of mitochondrial swelling. To determine the integrity of mitochondrial membranes, 10% of PEG 10 kDa (final concentration) was used to induce water release from mitochondria.
Mitochondria were obtained as described before. Briefly, yeast was incubated in YPD preculture medium for 24 h at 30° C, with agitation at 250 rpm, then the cells were cultured in YPlac at 30° C for 24 h at 250 rpm to improve respiration. Cells were collected and washed twice by centrifugation. The cells were suspended in cold isolating medium (5 mM MES, 0.6 M mannitol, 0.1% bovine serum albumin; the pH was adjusted to 6.8 with triethanolamine). The cells were disrupted into a Bead-Beater cell homogenizer (Biospec Products, USA) with 0.5 mm diameter glass beads, using three 20 seconds pulses separated by 40 seconds intervals. […] Protein concentration was determined by the Biuret method.

[2] = test system: MatA cells from Saccharomyces cerevisiae (BY4741); experiment: Antifungal activity (optical density growth curves); assay type: cell-based; conditions: YPD, 30°C, 24 h, OD and CFU; IP1 10 µM, fIP1 60 µM (Figure 3)
Procedure: (§1) An early stationary culture for every essay was obtained from a single colony growing overnight in YPD medium. This culture was used to inoculate a fresh YPD medium to reach 0.04 O.D. in a total volume of 200 µL. Every peptide and strain were tested in 96 well plates, each well containing 200 µL, incubating at 30°C with shaking using a Bioscreen C (Oy Growth Curves Ab Ltd, Finland). The activity of these peptides on each strain was determined by following the cultures during 24 hrs and recording the O.D. every hour. Lack of change in O.D. measured during 24 hours was indicative of antifungal activity.

[3] = test system: S. cerevisiae WT (BY4741); experiment: Area under the growth curve (AUC), wild type control of gene screen; assay type: cell-based, Saccharomyces cerevisiae; conditions: 10 µM peptide, 24 h growth curve; control value of Figure S1
Procedure: as §1
(§2) The cultures were prepared as in the antifungal activity assay described before (see above). To identify the strains lacking a gene required to inhibit in at least 50% the normal growth of the cells, the area under the growth curve (AUC) was calculated using software designed ad hoc in our laboratory. Thus, the ratio of the AUCs of the cells in the absence and in the presence of the peptide was determined; any strain rendering a ratio value between 1.0 and 2.0 was considered to carry a deletion of a critical gene.

[4] = test system: null mutant of the STE4 gene (BY4741 MATa ∆ste4); experiment: Screening for resistant gene deletions: STE4 null mutant; assay type: cell-based, Saccharomyces cerevisiae; conditions: 10 µM, Table S1 and Figure S1
Procedure: as §1, §2

[5] = 72 hr exposure, calcein AM / ethidium homodimer-1 staining
[6] = HFF cells, 72 hr exposure, LIVE/DEAD kit, > means no toxicity at the tested concentration, two independent assays in triplicates

**Q.** With LKKLLKLLL [PH(Magainin)1] as the compound, how does the Toxicity [1] read?
**A.** The Toxicity was >120 µM.

**Q.** And the “toxicity on HFF cells (in words)” value [1]?
**A.** The value was “none of the peptides induced cell death”.

**Q.** Which MIC (E. coli (DH10B)) does the source give for HSAKKFGK [PH(SCAP*)5] here?
**A.** Its MIC is >300 µM.

**Q.** What about the “toxicity on HFF cells (in words)” value [1, 5] of the same compound?
**A.** The value was “not toxic”.

**Q.** And the Toxicity [1, 6]?
**A.** The Toxicity was >500 µM.

**Q.** For KWKLFKKI [PH(SCAP*)1], which “toxicity on HFF cells (in words)” value [1, 5] is on record?
**A.** Its value is “not toxic”.

**Q.** And the Toxicity [1, 6]?
**A.** The Toxicity was >460 µM.

**Q.** What does the source list for LKKLKLLLKLL [PH(CeMa)1]?
**A.** Toxicity [1]: >90 µM; toxicity on HFF cells (in words) [1]: none of the peptides induced cell death

**Q.** With “KWKLFKKIEKVGQNIRDGIIKAGPAVAVVGQATQIAK (Cecropin-A; UniProt P01507 27-63, looked up) [Cecropin A]” as the compound, how does the Toxicity (human cells) read?
**A.** Its Toxicity is >50 µM.

**Q.** What about the MIC (bacteria) of the same compound?
**A.** Its MIC is 0.1 µM.

**Q.** For “KFLNRF [fIP1, the six residues at the N-terminus of IP1, control peptide]”, which mitochondrial swelling activity (isolated mitochondria) is on record?
**A.** The mitochondrial swelling activity was “did not exhibit any activity”.

**Q.** What about the “antifungal (killing) activity” value [2] of the same compound?
**A.** Its value is “did not exhibit any activity”.

**Q.** With FLHSAKKF [PH(SCAP*)4] as the compound, how does the MIC (E. coli (DH10B)) read?
**A.** The MIC was >300 µM.

**Q.** And the “toxicity on HFF cells (in words)” value [1, 5]?
**A.** The value was “not toxic”.

**Q.** What about the Toxicity [1, 6] of the same compound?
**A.** Its Toxicity is >500 µM.

**Q.** Which MIC (E. coli (DH10B)) does the source give for RRLKDFWHWLQLKPGQPMY [IP2] here?
**A.** The MIC was 20 µM.

**Q.** And the “antibacterial activity (in words)” value (E. coli (DH10B))?
**A.** The value was “presented anti-bacterial activity”.

**Q.** What about the Toxicity [1] of the same compound?
**A.** The Toxicity was >36 µM.

**Q.** What about the “toxicity on HFF cells (in words)” value [1] of the same compound?
**A.** The value was “no toxicity”.

**Q.** Which Toxicity (human cells) does the source give for GIGKFLHSAKKFGKAFVGEIMNS [Magainin 2] here?
**A.** Its Toxicity is >170 µM.

**Q.** And the MIC (bacteria)?
**A.** The MIC was 16 µM.

**Q.** With KFLHSAKK [PH(SCAP*)3] as the compound, how does the MIC (E. coli (DH10B)) read?
**A.** Its MIC is >300 µM.

**Q.** And the “toxicity on HFF cells (in words)” value [1, 5]?
**A.** The value was “not toxic”.

**Q.** What about the Toxicity [1, 6] of the same compound?
**A.** Its Toxicity is >500 µM.

**Q.** What does the source list for GKFLHSAK [PH(SCAP*)2]?
**A.** MIC (E. coli (DH10B)): >300 µM; toxicity on HFF cells (in words) [1, 5]: not toxic; Toxicity [1, 6]: >500 µM

**Q.** With `CSCC[C@H](NC(=O)[C@@H]1CCCN1C(=O)[C@H](CCC(N)=O)NC(=O)CNC(=O)[C@@H]1CCCN1C(=O)[C@H](CCCCN)NC(=O)[C@H](CC(C)C)NC(=O)[C@H](CCC(N)=O)NC(=O)[C@H](CC(C)C)NC(=O)[C@H](Cc1c[nH]c2ccccc12)NC(=O)[C@H](Cc1c[nH]cn1)NC(=O)[C@H](Cc1c[nH]c2ccccc12)NC(=O)[C@H](Cc1ccccc1)NC(=O)[C@H](CCCNC(=N)N)NC(=O)[C@H](CC(N)=O)NC(=O)[C@H](CC(C)C)NC(=O)[C@H](Cc1ccccc1)NC(=O)[C@@H](N)CCCCN)C(=O)N[C@@H](Cc1ccc(O)cc1)C(=O)O` [IP1] as the compound, how does the “area under the growth curve (AUC)” value [3] read?
**A.** Its value is 0.09.

**Q.** What about the “antibacterial activity (in words)” value (E. coli (DH10B)) of the same compound?
**A.** Its value is “presented anti-bacterial activity”.

**Q.** And the “killing activity on STE4 null mutant” value [4]?
**A.** The value was “resistant”.

**Q.** What about the “toxicity on HFF cells (in words)” value [1, 5] of the same compound?
**A.** The value was “no toxicity”.

**Q.** For GKFLHSAKKFGK [PH(SCAP*)6], which MIC (E. coli (DH10B)) is on record?
**A.** The MIC was >300 µM.

**Q.** And the “toxicity on HFF cells (in words)” value [1, 5]?
**A.** Its value is “not toxic”.

**Q.** And the Toxicity [1, 6]?
**A.** Its Toxicity is >500 µM.
